Entries after “also recorded” stand apart in the source; their conditions may differ.
What was measured:
cytokeratin 8/18 = assay: Differentiation assay (Western-blot analysis of cytokeratins 8/18); format: cell-based, human; conditions: LNCaP cells, 6 days; for cytokeratin 8/18 expression, fold over control, combination with ATRA: 1 μM RAMBA and 1 μM ATRA; for cytokeratin 8/18 expression, fold over control, combination with ATRA / cytokeratin 8/18 expression, fold over control: control 1±0.07; for cytokeratin 8/18 expression, fold over control: 1 μM agent alone; for expression of cytokeratin 8/18 (concentration dependence): various concentrations
Description: LNCaP cells were scraped with 1.5 ml of PBS. The cells were collected by centrifugation, resuspended in ice-cold cell lysis buffer (0.1 M Tris-HCl, 0.5% Triton X-100, and protease inhibitor cocktail (Boehringer, Indianapolis, IN, USA)), and sonicated. The homogenates were incubated on ice for 30 min, subjected to centrifugation at 13 000 × g for 30 min, and the supernatants were separated and stored at −80°C until use. Protein concentrations were determined by the Bradford method using a Bio-Rad kit (Hercules, CA, USA). A measure of 50 μg of cell lysate was subjected to 10% sodium dodecyl sulfate-polyacrylamide gel electrophoresis (SDS–PAGE) using the Mini-PROTEAN3 electrophoresis module assembly (Bio-Rad, Hercules, CA, USA) at 60 V at room temperature. The separated lysates on 10% SDS–PAGE gel were transferred onto Hybond ECL nitrocellulose membrane (Amersham, Arlington Heights, IL, USA) overnight at 20 V at 4°C. Western-blot analysis was performed on the nitrocellulose membrane. The membrane was blocked for 1 h in 10% nonfat dried milk and PBS containing 0.5% Tween 20 (PBS-T) at room temperature. Following washing in PBS-T, the membrane was incubated with mouse monoclonal IgG antibody to cytokeratin 8/18 or β-actin (Santa Cruz Biotechnology, Santa Cruz, CA, USA and Oncogene Research Products, Boston, MA, USA, respectively) dissolved in 10% nonfat dried milk (1 : 5000 or 1 : 10 000), respectively) for l h at room temperature. Following washing, the membrane was incubated with horseradish peroxidase-linked anti-mouse IgG antibody (Amersham, Arlington Heights, IL, USA and Oncogene Research Products, Boston, MA, USA, respectively) dissolved in 10% nonfat dried milk (1 : 1000) for 1 h at room temperature. The membrane was incubated in 4 ml ECL Western Blotting Analysis System (Amersham, Arlington Heights, IL, USA) for 1 min at room temperature. The membrane was resolved on chemiluminescence film (Amersham Hyperfilm High Performance chemiluminescence film, Arlington Heights, IL, USA) and the film was developed using an X-ray developer (M35A X-OMAT Processor, Eastman Kodak Company, Rochester, NY, USA). The intensity of the bands on film was analysed using ImageQuant 5.0 software (Amersham, Arlington Heights, IL, USA). The band intensity corresponds to the level of protein expression of cytokeratin 8/18, which is shown to be expressed in differentiated cells of epithelial origin ([Peehl et al, 1993]; [Hsieh et al, 1995]).

LNCaP cells [1] = assay: Cell-cycle analysis (propidium iodide, FACScan); format: cell-based, human; conditions: 5 μM, 6 days; for Sub-G1 (%): apoptotic cells, control 9.02; for G2/M (%): control 2.20; for S (%): control 15.01; for G0/G1 (%): control 82.78
Description: LNCaP cells were treated with 1 or 5 μM of ATRA or each of the RAMBAs for 6 days. The cells were trypsinised and washed twice in PBS (Life Technologies, Grand Island, NY, USA). The cells were fixed by adding 70% ethanol and stored at −20°C until staining. The cells were washed twice in PBS. A volume of 1 ml of a propidium iodide (PI) solution (50 μg ml^−1 in PBS) and 500 μl of an RNase stock solution (100 μg ml^−1) were added to the cells and incubated for 1 h in the dark. Approximately 10^4 stained cells were then analysed by flow cytometry (Becton Dickenson FACScan, Franklin Lakes, NJ, USA). The percentages of cells in G0/G1, S, and G2/M phases of the cell cycle as well as percentage of apoptotic cells (sub G0/G1) were determined using MODFIT LT software (Verity Software House, San Jose, CA, USA). The percentages of cells in G0/G1, S, and G2/M phases of the cell cycle were obtained from diploid cells in the sample and the percentage of apoptotic cells (sub G0/G1) was obtained from total cells minus the debris.

LNCaP cells [2] = assay: WST-1 cell viability / LNCaP cell growth inhibition assay; format: cell-based; conditions: Homo sapiens, 144 h, 6 days, read-out: Cell growth inhibition, agents alone, IC50
Description: To measure cell viability, 24-well plates were coated with a 0.05% poly-L-lysine solution for 30 min. The wells were then washed with sterilised dH2O. LNCaP cells (1 × 10^4) were seeded in the plates and maintained in RPMI 1640 medium (Gibco-Invitrogen, Carlsbad, CA, USA). The cells were allowed to attach for 36 h. After attachment, fresh media was added and the cells were treated with a concentration range of either ATRA or each of the RAMBAs for 6 days. The media was changed every 3 days. On the day the assay was performed, the media was removed and 1 ml of a stock solution of WST-1 (4-[3-(4-iodophenyl)-2-(4-nitrophenyl)-2H-5-tetrazolio]-1,3-benzene disulfonate) cell proliferation reagent (Boehringer Mannheim, Indianapolis, IN, USA), diluted 1 : 10 in RPMI 1640 medium (without FBS), was added to each well. The plates were incubated at 37°C for 3 h. The media was then removed and 500 μl of DMSO was added and agitated vigorously for 5 min. The slightly red tetrazolium salt WST-1 is reduced to a dark red, water-soluble formazan product by mitochondrial dehydrogenase from living cells, which gives absorbance at a wavelength of 450 nm.

LNCaP tumour xenographs = assay: In vivo antitumour study, LNCaP human prostate carcinoma xenograft; set-up: species or system male SCID mice; conditions: 0.033 mmol kg−1 once daily; for reduction in tumour growth compared to control: 6 weeks, P<0.05
Description: All animal studies were performed according to the guidelines and approval of the Animal Care Committee of the University of Maryland School of Medicine, and were consistent with United Kingdom Coordinating Committee on Cancer Research guidelines for the welfare of animals in experimental neoplasia. The procedure was modified from [Grigoryev et al (1999)]. Briefly, LNCaP cells were trypsinised, counted, and suspended in Matrigel (2 × 10^7 cells ml^−1) (Fisher Scientific International, Inc., Hampton, NH, USA). Male SCID mice of 4–6 weeks of age were obtained from the National Cancer Institute (Frederick, MD, USA). Each mouse was inoculated s.c. with 0.1 ml of the cell suspension at two sites in the flank. The size of the tumours was determined by measuring the tumour volumes using calipers. Tumour volumes were calculated using the formula V=4/3 × π × r1^2 × r2(r1<r2). The tumours were allowed to develop to approximately 100 mm^3 before treatment. […] Tumour volumes were measured twice weekly and weights of animals were taken weekly after the initiation of treatment. The mice were subjected to 6 weeks of treatment. The mice were then killed and the tumours were excised, weighed, and stored at −80°C until analysis. Additionally, the plasma was collected with 50 IU of heparin and stored at −80°C until analysis.

Row | Compound | IC50 (LNCaP cells [2]) [µM] | cytokeratin 8/18 expression, fold over control, combination with ATRA (cytokeratin 8/18) [fold] | cytokeratin 8/18 expression, fold over control (cytokeratin 8/18) [fold] | expression of cytokeratin 8/18 (concentration dependence) (cytokeratin 8/18; data not shown) | Sub-G1 (%) (LNCaP cells [1]) | G2/M (%) (LNCaP cells [1]) | S (%) (LNCaP cells [1]) | G0/G1 (%) (LNCaP cells [1]) | tumour growth compared to vehicle control (in words) (LNCaP tumour xenographs) | reduction in tumour growth compared to control (LNCaP tumour xenographs) [%] | cytokeratin 8/18 expression compared to control (cytokeratin 8/18; 5 and 10 μM, P<0.05, data not shown)
1 | CC1=C(/C=C/C(C)=C/C=C/C(C)=C/C(=O)n2ccnc2)C(C)(C)CCC1n1ccnc1 (centres unmarked) [VN/50-1] | 6 | 1.51 | 1.23 | concentration-dependent increase | 17.67 | 7.30 | 11.38 | 81.33 |  |  | 
2 | CC1=C(/C=C/C(C)=C/C=C/C(C)=C/C(=O)O)C(C)(C)CCC1n1ccnc1 (centres unmarked) [VN/14-1] | 10 | 1.59 | 1.18 | concentration-dependent increase | 17.88 | 10.15 | 7.26 | 82.59 | ineffective; also recorded: not significantly different |  | 
3 | CC1=C(/C=C/C(C)=C/C=C/C(C)=C/C(=O)O)C(C)(C)CCC1 [ATRA, all-trans-retinoic acid, reference compound] | 4.3 |  | 1.38 | concentration-dependent increase | 13.64 | 12.42 | 9.84 | 77.74 | statistically significantly LNCaP tumour growth inhibition | 75 | significant increase

Continued, in another order:

Row | IC50 (LNCaP cells [2]) [µM] | Compound | cytokeratin 8/18 expression, fold over control, combination with ATRA (cytokeratin 8/18) [fold] | cytokeratin 8/18 expression, fold over control (cytokeratin 8/18) [fold] | expression of cytokeratin 8/18 (concentration dependence) (cytokeratin 8/18; data not shown) | Sub-G1 (%) (LNCaP cells [1]) | G2/M (%) (LNCaP cells [1]) | S (%) (LNCaP cells [1]) | G0/G1 (%) (LNCaP cells [1]) | tumour growth compared to vehicle control (in words) (LNCaP tumour xenographs) | reduction in tumour growth compared to control (LNCaP tumour xenographs) [%] | cytokeratin 8/18 expression compared to control (cytokeratin 8/18; 5 and 10 μM, P<0.05, data not shown)
4 | 4.5 | CC1=C(/C=C/C(C)=C/C=C/C(C)=C/C(=O)Nc2ccc(O)cc2)C(C)(C)CCC1n1ccnc1 (centres unmarked) [VN/66-1] | 1.48 | 1.28 | concentration-dependent increase | 14.49 | 5.07 | 11.14 | 83.80 | statistically significantly LNCaP tumour growth inhibition | 44 | 
5 | 5 | CC1=C(/C=C/C(C)=C/C=C/C(C)=C\C(=O)Nc2ccc(O)cc2)C(C)(C)CCC1n1ccnc1 (centres unmarked) [VN/69-1] | 1.32 | 1.19 | concentration-dependent increase | 13.39 | 6.20 | 11.14 | 82.66 | statistically significantly LNCaP tumour growth inhibition | 47 | 

Source: PMC2361176, “Inhibitory effects of retinoic acid metabolism blocking agents (RAMBAs) on the growth of human prostate cancer cells and LNCaP prostate tumour xenografts in SCID mice” (British Journal of Cancer, 2006)
